From patent US7322965B2, “Infection-resistant medical devices” (priority 2002, dated 2008)
Like-named read-outs stand apart in the source and are kept apart here.

Columns and labels:
Assay type in all cases: cell-based
[1] = test system: S. epidermidis isolates (UC-20207, UC-20208, and RP62A); test: Time course adherence assay, summary over three S. epidermidis isolates; details: for mean inhibitory effects on staphylococcal adherence: subtherapeutic (one-half MIC)
Experimental: (§1) Drug effects on bacterial adherence were measured 18 hours after treatment initiation using a quantitative spectrophotometric assay.
(§2) Relative inhibition of adherence was expressed by the following equation: (OD of control well−OD of treated well/OD of control well)×100, where OD is the mean optical density of six replicate wells from two separate experiments (three replicates per experiment). Control was defined as infected, drug-free cultures.
(§3) The primary efficacy variable in this study was the measurement of adherent bacteria to polystyrene surfaces after 18 hours to 24 hours of growth. To determine whether statistically significant differences existed between treatments (4×MIC, 2×MIC, MIC, and ½ MIC) compared with the infected-nontreated controls, multiple comparisons according to Dunnett's test (Montgomery, Design and Analysis of Experiments (1991)) were applied for each clinical strain. Differences were considered statistically significant when p<0.05.

S. epidermidis UC-20207 = test: Time course adherence assay (prophylactic and delayed treatment); details: for inhibition at 1 µg/mL / inhibition at 2 µg/mL / inhibition at 4 µg/mL / inhibition at 80 µg/mL: Staphylococcus epidermidis, read-out: Percent inhibition of bacterial adherence relative to controls; for Mean OD550: UC-20207
Experimental: as §1, §2, §3

S. epidermidis UC-20208 = test: as above; details: for inhibition at 1 µg/mL / inhibition at 2 µg/mL / inhibition at 4 µg/mL / inhibition at 8 µg/mL: Staphylococcus epidermidis, read-out: Percent inhibition of bacterial adherence relative to controls; for Mean OD550: UC-20208
Experimental: as §1, §2, §3

S. epidermidis RP62A = test: as above; details: for inhibition at 1 µg/mL / inhibition at 2 µg/mL / inhibition at 4 µg/mL / inhibition at 8 µg/mL: Staphylococcus epidermidis, read-out: Percent inhibition of bacterial adherence relative to controls
Experimental: as §1, §2, §3

[2] = 1.0 μg/ml, treatment 0 h post-infection
[3] = 1.0 μg/ml, treatment 2 h post-infection
[4] = 1.0 μg/ml, treatment 4 h post-infection
[5] = 1.0 μg/ml, treatment 6 h post-infection
[6] = 2.0 μg/ml (MIC), treatment 0 h post-infection
[7] = 2.0 μg/ml (MIC), treatment 2 h post-infection
[8] = 2.0 μg/ml (MIC), treatment 4 h post-infection
[9] = 2.0 μg/ml (MIC), treatment 6 h post-infection
[10] = 4.0 μg/ml, treatment 0 h post-infection
[11] = 4.0 μg/ml, treatment 2 h post-infection
[12] = 4.0 μg/ml, treatment 4 h post-infection
[13] = 4.0 μg/ml, treatment 6 h post-infection
[14] = 8.0 μg/ml, treatment 0 h post-infection
[15] = 8.0 μg/ml, treatment 2 h post-infection
[16] = 8.0 μg/ml, treatment 4 h post-infection
[17] = 8.0 μg/ml, treatment 6 h post-infection

## CC(=O)NC[C@H]1CN(c2ccc(N3CCOCC3)c(F)c2)C(=O)O1 [Linezolid, (S)-N-[[3-[3-fluoro-4-(4-morpholinyl)phenyl]-2-oxo-5-oxazolidinyl]methyl]acetamide]
[1]; 4×MIC, 6-hour delay, mean of three strains
  inhibitory effects on adherence: 87.5%±11.7
[1]; 2 h delayed treatment, mean of three strains
  mean inhibitory effects on staphylococcal adherence: 99.1%±1.4
[1]; 4 h delayed treatment, mean of three strains
  mean inhibitory effects on staphylococcal adherence: 63.5%±39.2
[1]; therapeutic levels (≧MIC), 2- and 4-hour deferred treatments
  anti-adhesion activity: potent anti-adhesion activity
S. epidermidis UC-20207; UC20207, 0 h
  inhibition at 1 µg/mL: 96.5%
  inhibition at 2 µg/mL: 99%
  inhibition at 4 µg/mL: 99.6%
  inhibition at 80 µg/mL: 99.8%
S. epidermidis UC-20207; UC20207, 2 h
  inhibition at 1 µg/mL: 97.5%
  inhibition at 2 µg/mL: 99.8%
  inhibition at 4 µg/mL: 99.7%
  inhibition at 80 µg/mL: 99.6%
S. epidermidis UC-20207; UC20207, 4 h
  inhibition at 1 µg/mL: 68.4%
  inhibition at 2 µg/mL: 87.8%
  inhibition at 4 µg/mL: 99.2%
  inhibition at 80 µg/mL: 99%
S. epidermidis UC-20207; UC20207, 6 h
  inhibition at 1 µg/mL: 0%
  inhibition at 2 µg/mL: 0%
  inhibition at 4 µg/mL: 41.4%
  inhibition at 80 µg/mL: 75.1%
S. epidermidis UC-20207; [2]
  Mean OD550: 0.084 ± 0.049
S. epidermidis UC-20207; [3]
  Mean OD550: 0.064 ± 0.046
S. epidermidis UC-20207; [4]
  Mean OD550: 0.921 ± 0.119
S. epidermidis UC-20207; [5]
  Mean OD550: 2.757 ± 0.173
S. epidermidis UC-20207; [6]
  Mean OD550: 0.024 ± 0.005
S. epidermidis UC-20207; [7]
  Mean OD550: 0.004 ± 0.002
S. epidermidis UC-20207; [8]
  Mean OD550: 0.356 ± 0.418
S. epidermidis UC-20207; [9]
  Mean OD550: 2.938 ± 0.119
S. epidermidis UC-20207; [10]
  Mean OD550: 0.009 ± 0.004
S. epidermidis UC-20207; [11]
  Mean OD550: 0.007 ± 0.001
S. epidermidis UC-20207; [12]
  Mean OD550: 0.022 ± 0.010
S. epidermidis UC-20207; [13]
  Mean OD550: 1.558 ± 0.094
S. epidermidis UC-20207; linezolid 80 μg/ml, treatment 0 h post-infection
  Mean OD550: 0.005 ± 0.002
S. epidermidis UC-20207; linezolid 80 μg/ml, treatment 2 h post-infection
  Mean OD550: 0.009 ± 0.003
S. epidermidis UC-20207; linezolid 80 μg/ml, treatment 4 h post-infection
  Mean OD550: 0.028 ± 0.020
S. epidermidis UC-20207; linezolid 80 μg/ml, treatment 6 h post-infection
  Mean OD550: 0.662 ± 0.103
S. epidermidis UC-20208; UC20208, 0 h
  inhibition at 1 µg/mL: 99.9%
  inhibition at 2 µg/mL: 99.9%
  inhibition at 4 µg/mL: 99.8%
  inhibition at 8 µg/mL: 100%
S. epidermidis UC-20208; UC20208, 2 h
  inhibition at 1 µg/mL: 99.8%
  inhibition at 2 µg/mL: 99.8%
  inhibition at 4 µg/mL: 99.7%
  inhibition at 8 µg/mL: 99.7%
S. epidermidis UC-20208; UC20208, 4 h
  inhibition at 1 µg/mL: 22.1%
  inhibition at 2 µg/mL: 100%
  inhibition at 4 µg/mL: 100%
  inhibition at 8 µg/mL: 100%
S. epidermidis UC-20208; UC20208, 6 h
  inhibition at 1 µg/mL: 0%
  inhibition at 2 µg/mL: 0%
  inhibition at 4 µg/mL: 56.8%
  inhibition at 8 µg/mL: 89.1%
S. epidermidis UC-20208; [2]
  Mean OD550: 0.001 ± 0.002
S. epidermidis UC-20208; [3]
  Mean OD550: 0.003 ± 0.001
S. epidermidis UC-20208; [4]
  Mean OD550: 0.856 ± 0.472
S. epidermidis UC-20208; [5]
  Mean OD550: 1.127 ± 0.133
S. epidermidis UC-20208; [6]
  Mean OD550: 0.001 ± 0.001
S. epidermidis UC-20208; [7]
  Mean OD550: 0.003 ± 0.000
S. epidermidis UC-20208; [8]
  Mean OD550: 0.000 ± 0.003
S. epidermidis UC-20208; [9]
  Mean OD550: 1.602 ± 0.300
S. epidermidis UC-20208; [10]
  Mean OD550: 0.002 ± 0.001
S. epidermidis UC-20208; [11]
  Mean OD550: 0.004 ± 0.001
S. epidermidis UC-20208; [12]
  Mean OD550: 0.000 ± 0.001
S. epidermidis UC-20208; [13]
  Mean OD550: 0.363 ± 0.280
S. epidermidis UC-20208; [14]
  Mean OD550: 0.000 ± 0.001
S. epidermidis UC-20208; [15]
  Mean OD550: 0.004 ± 0.001
S. epidermidis UC-20208; [16]
  Mean OD550: 0.000 ± 0.003
S. epidermidis UC-20208; [17]
  Mean OD550: 0.092 ± 0.053
S. epidermidis RP62A; [2]
  Mean OD550: 0.000 ± 0.002
S. epidermidis RP62A; [3]
  Mean OD550: 0.000 ± 0.000
S. epidermidis RP62A; [4]
  Mean OD550: 0.000 ± 0.001
S. epidermidis RP62A; [5]
  Mean OD550: 0.274 ± 0.183
S. epidermidis RP62A; [6]
  Mean OD550: 0.004 ± 0.004
S. epidermidis RP62A; [7]
  Mean OD550: 0.001 ± 0.001
S. epidermidis RP62A; [8]
  Mean OD550: 0.003 ± 0.005
S. epidermidis RP62A; [9]
  Mean OD550: 0.083 ± 0.067
S. epidermidis RP62A; [10]
  Mean OD550: 0.002 ± 0.002
S. epidermidis RP62A; [11]
  Mean OD550: 0.003 ± 0.002
S. epidermidis RP62A; [12]
  Mean OD550: 0.002 ± 0.004
S. epidermidis RP62A; [13]
  Mean OD550: 0.082 ± 0.051
S. epidermidis RP62A; [14]
  Mean OD550: 0.002 ± 0.002
S. epidermidis RP62A; [15]
  Mean OD550: 0.003 ± 0.001
S. epidermidis RP62A; [16]
  Mean OD550: 0.000 ± 0.001
S. epidermidis RP62A; [17]
  Mean OD550: 0.021 ± 0.010
S. epidermidis RP62A; 0 h
  inhibition at 1 µg/mL: 100%
  inhibition at 2 µg/mL: 99.8%
  inhibition at 4 µg/mL: 99.9%
  inhibition at 8 µg/mL: 99.9%
S. epidermidis RP62A; 2 h
  inhibition at 1 µg/mL: 100%
  inhibition at 2 µg/mL: 99.9%
  inhibition at 4 µg/mL: 99.9%
  inhibition at 8 µg/mL: 99.8%
S. epidermidis RP62A; 4 h
  inhibition at 1 µg/mL: 100%
  inhibition at 2 µg/mL: 99.8%
  inhibition at 4 µg/mL: 99.8%
  inhibition at 8 µg/mL: 100%
S. epidermidis RP62A; 6 h
  inhibition at 1 µg/mL: 78.4%
  inhibition at 2 µg/mL: 93.4%
  inhibition at 4 µg/mL: 93.5%
  inhibition at 8 µg/mL: 98.4%
